One assay concerns HPK1 pSLP76 (Ser376). Briefly: Cellular assay phospho-SLP-76 (Ser376). Type of assay: cell-based, human. To be noted: SLP76 Ser376 phosphorylation after αCD3/αCD28 stimulation; Jurkat (human) or EL-4 (mouse) cells, table does not say which; read-out: HPK1 pSLP76 IC50. On the procedure: Cellular Assay—Phospho-SLP-76 (Ser376).
Inhibition of HPK1 enzymatic activity in cells was determined by detection of SLP76 phosphorylation at Ser376 residue in lysate from Jurkat (human) and EL-4 (mouse) cells. Jurkat and EL-4 cells express both HPK1 and SLP76 naturally. All cells were cultured in RPMI 1640 media containing 10% heat inactivated fetal bovine serum (FBS) and 1× Penicillin-Streptomycin. In either Jurkat or El-4 assay, cells were pre-incubated with test compounds prior to T cell stimulation by respective αCD3/αCD28 Dynabeads™. For detection, plates were read on the Envision and percent inhibition and IC50 were determined by Smart fit in Genedata Analyzer.
For Jurkat cells: 35 μL cell suspension were dispensed at a density of 30,000 cells/well in 384-well plates containing HBSS (Gibco, 14025076)+0.1% BSA). 10-point logarithmic serial dilution of test compounds in DMSO were prepared by a Hamilton automated liquid handling robot and 35 nL was transferred into each well by an Echo liquid handler. After 60 min. pre-incubation, the cells were stimulated by adding 5 μL human T activator αCD3/αCD28 Dynabeads™ (Gibco, 11132D) at 1.2×107 beads/ml for 15 minutes at 37° C. Detection of Ser376 phosphorylation status was accomplished by first adding 10 μL of 5× AlphaLISA lysis buffer (Perkin Elmer, ALSU-PSLP-A500) to each well of the cell plate using a Multidrop Combi (5840300), followed by 20 minutes shaking. 10 μL cell lysate from each treatment were then transferred to a white 384-well plate (Corning 3572) and incubated with AlphaLISA acceptor beads for one hour (AlphaLISA SureFire Ultra p-SLP76 (Ser376), Perkin Elmer, ALSU-PSLP-A500), and donor beads for additional 2 hours at room temperature in the dark. […]

The target in assay [1] is full-length human HPK1 (MAP4K1) (Homo sapiens (Human), UniProt Q92918). Kind of assay: HPK1 kinase assay (biochemical, ADP-Glo). To be noted: GST-HPK1 3.2 nM, 10 μM ATP, MBP substrate, ADP-Glo; read-out: HPK1 enzymatic IC50. The source says:
HPK1 kinase assay (Biochemical assay).
A recombinant fusion protein consisting of full-length human HPK1 (MAP4K1) with an N-terminal Glutatione S-transferase (GST) tag was produced in insect cells Sf21 using the baculovirus expression system. GST-HPK1 protein was purified from cell lysates by glutathione Sepharose affinity chromatography. The assay is run in three continuous steps: 1) the HPK1 enzymatic kinase reaction, 2) an ATP depletion, and 3) the ADP detection, the steps 2 and 3 are performed with ADP-Glo™ Kinase Assay kit from Promega (V9101). Test compounds were prepared by 10-point serial dilution in dimethyl sulfoxide (DMSO) and 100 nL of each dilution was spotted onto a 384-well Optiplate (Perkin Elmer and Cat #6007299) by Labcyte Echo. 5 μL kinase reaction buffer (0.02% Brij-35, 2 mM DTT, 50 mM HEPES pH 7.5, MgCl2 10 mM, BSA 0.01% and β-glycerophosphate 12.5 mM) containing HPK1 (3.2 nM) enzyme was transferred to each well and incubated for 15 minutes at room temperature at 60% humidity. The enzymatic reaction was started by adding 5 μl of Start-Mix (10 μM ATP and 3.235 μM MBP). After 120 minutes, the reaction was stopped by adding 5 μL of ADP-Glo reagent (Promega, V9101) and incubating for 40 min. in the dark at 23° C. To determine the level of ADP, 10 μl ADP-Glo Detection solution was added and incubated for 1 hour at 23° C. in the dark. The plate was transferred to a Perkin Elmer EnVision (2104 Multilabel Reader) for luminescence detection and percent inhibition activity and IC50 value were determined using Genedata Screener.
A general note: ADP-Glo turns the ADP formed in a reaction into a luminescent signal.

Among the data in patent US20250320228A1, “PYRIDO[3,2-D]PYRIMIDINES AS HPK1 INHIBITORS” (Merck Patent GmbH, priority 2022, published 2025) are IC50 values, retold here.

For orientation: IC50 means the concentration at which inhibition is half-maximal.

Molecules are shown by their SMILES.

Sequence of full-length human HPK1 (MAP4K1) (Q92918 whole entry): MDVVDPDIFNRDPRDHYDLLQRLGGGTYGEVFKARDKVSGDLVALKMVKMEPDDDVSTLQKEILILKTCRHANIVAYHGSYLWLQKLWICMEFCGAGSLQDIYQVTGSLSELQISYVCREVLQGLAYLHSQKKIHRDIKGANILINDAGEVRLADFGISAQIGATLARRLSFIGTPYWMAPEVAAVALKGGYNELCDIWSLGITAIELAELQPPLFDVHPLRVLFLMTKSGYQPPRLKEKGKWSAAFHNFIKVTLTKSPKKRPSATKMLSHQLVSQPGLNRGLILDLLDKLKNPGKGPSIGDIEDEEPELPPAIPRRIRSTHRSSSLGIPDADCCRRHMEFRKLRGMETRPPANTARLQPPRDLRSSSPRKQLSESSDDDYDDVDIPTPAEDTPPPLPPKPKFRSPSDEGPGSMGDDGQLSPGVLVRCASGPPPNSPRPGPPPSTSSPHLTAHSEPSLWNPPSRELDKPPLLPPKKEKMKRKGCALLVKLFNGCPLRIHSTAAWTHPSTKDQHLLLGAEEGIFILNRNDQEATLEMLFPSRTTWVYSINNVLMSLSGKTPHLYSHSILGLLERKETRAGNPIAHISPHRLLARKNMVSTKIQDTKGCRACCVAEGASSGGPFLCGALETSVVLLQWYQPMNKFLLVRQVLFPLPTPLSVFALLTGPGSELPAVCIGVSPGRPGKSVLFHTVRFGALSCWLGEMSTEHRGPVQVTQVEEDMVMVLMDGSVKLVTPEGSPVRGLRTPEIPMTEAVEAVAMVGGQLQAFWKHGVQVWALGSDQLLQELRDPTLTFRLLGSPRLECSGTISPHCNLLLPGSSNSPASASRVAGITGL

As to `NC(=O)c1cc(-c2ccc(C3(N4CCOCC4)CC3)cc2)nc2c(N[C@H]3CCCNC3)ncnc12` [Example 28, 6-[4-[1-(morpholin-4-yl)cyclopropyl]phenyl]-4-[(3S)-piperidin-3-ylamino]pyrido [3,2-d]pyrimidine-8-carboxamide], the IC50 with HPK1 pSLP76 (Ser376) was below 0.5 µM; in assay [1], below 0.1 µM.
On to `NC(=O)c1cc(-c2ccc(CN3CC4CCC(C3)O4)cc2)nc2c(N[C@H]3CCCNC3)ncnc12` [Example 65, 6-(4-[8-oxa-3-azabicyclo [3.2.1]octan-3-ylmethyl]phenyl)-4-[(3S)-piperidin-3-ylamino]pyrido[3,2-d]pyrimidine-8-carboxamide], for which the IC50 in the assay on HPK1 pSLP76 (Ser376) was below 0.5 µM; in assay [1], below 0.1 µM.
As to `COc1ccccc1-c1cc(C(N)=O)c2ncnc(N[C@H]3CCCNC3)c2n1` [Example 72, 6-(2-methoxyphenyl)-4-[(3S)-piperidin-3-ylamino]pyrido[3,2-d]pyrimidine-8-carboxamide], the IC50 with HPK1 pSLP76 (Ser376) is above 1 µM; in assay [1], below 0.1 µM.
As for `NC(=O)c1cc(-c2ccc(CN3CCOC(F)(F)C3)cc2)nc2c(N[C@H]3CCCNC3)ncnc12` [Example 70, 6-[4-[(2,2-difluoromorpholin-4-yl)methyl]phenyl]-4-[(3S)-piperidin-3-ylamino]pyrido[3,2-d]pyrimidine-8-carboxamide], the IC50 with HPK1 pSLP76 (Ser376) is 0.5 to 1 µM; in assay [1], below 0.1 µM.
In the same order, the values of `NC(=O)c1cc(C2=CCN(C(=O)C3CC3)CC2)nc2c(N[C@H]3CCCNC3)ncnc12` [Example 75, 6-(1-cyclopropanecarbonyl-1,2,3,6-tetrahydropyridin-4-yl)-4-{[(3S)-piperidin-3-yl]amino}pyrido[3,2-d]pyrimidine-8-carboxamide] are 0.5 to 1 µM and below 0.1 µM.
On to `CC(C)(O)C(F)(F)Oc1ccc(-c2cc(C(N)=O)c3ncnc(N[C@H]4CCCNC4)c3n2)cc1` [Example 47, (S)-6-(4-(1,1-difluoro-2-hydroxy-2-methylpropoxy)phenyl)-4-(piperidin-3-ylamino)pyrido[3,2-d]pyrimidine-8-carboxamide], for which the IC50 in the assay with HPK1 pSLP76 (Ser376) was 0.5 to 1 µM; in assay [1], below 0.1 µM.
Take `COCCOc1ccc(-c2cc(C(N)=O)c3ncnc(N[C@H]4CCCNC4)c3n2)c(C#N)c1` [Example 46, (S)-6-(2-cyano-4-(2-methoxyethoxy)phenyl)-4-(piperidin-3-ylamino)pyrido[3,2-d]pyrimidine-8-carboxamide]: the results for the IC50 (in the assay on HPK1 pSLP76 (Ser376); in assay [1]) were above 1 µM and below 0.1 µM, respectively.
As for `NC(=O)c1cc(-c2cc(F)c(OCC3(O)CCC3)c(F)c2)nc2c(N[C@@H]3CNC[C@@H](F)C3)ncnc12` [Example 33, 6-(3,5-difluoro-4-((1-hydroxycyclobutyl)methoxy)phenyl)-4-(((3S,5S)-5-fluoropiperidin-3-yl)amino)pyrido[3,2-d]pyrimidine-8-carboxamide], the IC50 in the assay on HPK1 pSLP76 (Ser376) is below 0.5 µM; in assay [1], below 0.1 µM.
For `NC(=O)c1cc(-c2ccc(CN3CC4CC(C3)O4)cc2)nc2c(N[C@H]3CCCNC3)ncnc12` [Example 63, 6-(4-[6-oxa-3-azabicyclo [3.1.1]heptan-3-ylmethyl]phenyl)-4-[(3S)-piperidin-3-ylamino]pyrido[3,2-d]pyrimidine-8-carboxamide], the figures for the IC50 (with HPK1 pSLP76 (Ser376); in assay [1]) were below 0.5 µM and below 0.1 µM, respectively.
Take `NC(=O)c1cc(-c2ccc(OCC3(O)CC3)cc2)nc2c(N[C@@H]3CNCCC3(F)F)ncnc12` [Example 16, (R)-4-((4,4-difluoropiperidin-3-yl)amino)-6-(4-((1-hydroxycyclopropyl)methoxy)phenyl)pyrido[3,2-d]pyrimidine-8-carboxamide]: the half-maximal inhibitory concentration (IC50) in the assay with HPK1 pSLP76 (Ser376) is below 0.5 µM; in assay [1] it was below 0.1 µM.
The matching figures for `NC(=O)c1cc(-c2ccc(C3(O)CC3)cc2)nc2c(N[C@H]3CCCNC3)ncnc12` [Example 58, 6-[4-(1-hydroxycyclopropyl)phenyl]-4-[(3S)-piperidin-3-ylamino]pyrido[3,2-d]pyrimidine-8-carboxamide]: below 0.5 µM and below 0.1 µM.
